Measurements reported in ChEMBL document CHEMBL1128984, “Synthesis and biological activity of novel tricyclic -lactams” (1996).

Legend:
Assay type in all cases: functional
Clostridium perfringens = assay: In vitro antibacterial activity against Clostridium perfringens 615.
Enterococcus faecalis = assay: In vitro antibacterial activity against […] faecalis 850E.
Escherichia coli = assay: In vitro antibacterial activity against Escherichia coli 1850.
Pseudomonas aeruginosa = assay: In vitro antibacterial activity against Pseudomonas aeruginosa 1911.
Staphylococcus aureus [1] = assay: In vitro antibacterial activity against Staphylococcus aureus 663.
Staphylococcus aureus [2] = assay: In vitro antibacterial activity against Staphylococcus aureus 853.
Staphylococcus aureus [3] = assay: In vitro antibacterial activity against Staphylococcus aureus 1131.

| SMILES | MIC (Clostridium perfringens) [µg/mL] | MIC (Enterococcus faecalis) [µg/mL] | MIC (Escherichia coli) [µg/mL] | MIC (Pseudomonas aeruginosa) [µg/mL] | MIC (Staphylococcus aureus [1]) [µg/mL] | MIC (Staphylococcus aureus [2]) [µg/mL] | MIC (Staphylococcus aureus [3]) [µg/mL] |
| --- | --- | --- | --- | --- | --- | --- | --- |
| C[C@@H](O)[C@H]1C(=O)N2C(C(=O)O)=C(SCCNC=N)C[C@H]12.O [IMIPENEM] | 0.03 | 2 | 0.5 | 4 | 0.06 | 0.12 | 4 |
| CO[C@H]1CC[C@H]2C1=C(C(=O)[O-])N1C(=O)[C@H]([C@@H](C)O)[C@@H]21.[Na+] | 0.12 | 2 | 0.5 | 32 | 0.25 | 0.5 | 8 |
| C[C@@H](O)[C@H]1C(=O)N2C(C(=O)[O-])=C3CCC[C@H]3[C@H]12.[Na+] | 1 | 16 | 2 | > 32 | 1 | 0.5 | 8 |
